The results in this text go back to ChEMBL document CHEMBL2412968, “Tetrazole-based deoxyamodiaquines: synthesis, ADME/PK profiling and pharmacological evaluation as potential antimalarial agents” (Bioorg Med Chem, 2013).

Series [1] has as its system Plasmodium falciparum. Kind of series: Antiplasmodial activity chloroquine-resistant Plasmodium falciparum K1 infected in human A+ erythrocytes assessed as reduction of [3H]hypoxanthine incorporation after 24 hrs by scintillation counting. Format: functional, organism-based.
Series [2] deals with Plasmodium falciparum. Kind of series: Antiplasmodial activity chloroquine-sensitive Plasmodium falciparum 3D7 infected in human A+ erythrocytes assessed as reduction of [3H]hypoxanthine incorporation after 24 hrs by scintillation counting. Format: functional, organism-based.
The test system of series [3] is Plasmodium falciparum. Kind of series: Antiplasmodial activity chloroquine-resistant Plasmodium falciparum W2 using YOYO-1 staining after 48 hrs by FACS analysis. Conditions: W2, 48 h. Format: functional, organism-based. In general terms: A flow cytometer gives signals particle by particle.
Series [4] is described as follows: physchem. To be noted: 0.01 M HCl, pH 2.
Series [5] in a line: physchem. Conditions: phosphate buffered saline, pH 7.4.
The test system of another series is CHO. Kind of series: Cytotoxicity against CHO cells by MTT assay. Format: cell-based. Conditions: Cricetulus griseus. On the technique in general: Tetrazolium assays rely on reduction of a dye to a coloured formazan, in cell work by metabolically active cells.

SMILES strings stand for the structures. In brackets after ≈: the same amount, converted by molar mass.

By IC50 is commonly meant the point on the concentration scale where inhibition reaches its midpoint. On to `CN(C)C(c1ccccc1Nc1ccnc2cc(Cl)ccc12)c1nnnn1C(C)(C)C` (stereo not given), for which the IC50 came to 3500 nM in the series on Plasmodium falciparum [1], 3500 nM with Plasmodium falciparum [2] and 3380 nM in the series on Plasmodium falciparum [3].
For `CN(C)C(c1ccc(Nc2ccnc3cc(Cl)ccc23)cc1)c1nnnn1C(C)(C)C` (stereo not given), the IC50 with Plasmodium falciparum [1] amounted to 12 nM; in the series on Plasmodium falciparum [2], 12 nM; in the series on Plasmodium falciparum [3] it was 40 nM.
The term kinetic solubility denotes solubility judged after dilution from a stock solution rather than from solid. `CN(C)C(c1cccc(Nc2ccnc3cc(Cl)ccc23)c1)c1nnn[nH]1` (stereo not given): the kinetic solubility at 2 h is greater than 200 µM in “physchem [4]” and 72.6 µM (≈ 27.6 µg/mL) in “physchem [5]”. Moreover, the IC50 was 2980 nM in the series on Plasmodium falciparum [1], 487 nM with Plasmodium falciparum [2] and 1170 nM with Plasmodium falciparum [3].
As to `CCN(CC)C(c1cccc(Nc2ccnc3cc(Cl)ccc23)c1)c1nnn[nH]1` (stereo not given), the figures for the kinetic solubility at 2 h in “physchem [4]” and in “physchem [5]” were greater than 200 µM and 149 µM (≈ 60.8 µg/mL), respectively. Besides, the IC50 with Plasmodium falciparum [1] stood at 54 nM; in the series on Plasmodium falciparum [2], 164 nM; in the series on Plasmodium falciparum [3], 475 nM.
Taken in the same sequence, the figures for `Clc1ccc2c(Nc3cccc(C(c4nnn[nH]4)N4CCCC4)c3)ccnc2c1` (stereo not given) were greater than 200 µM, 150 µM (≈ 60.9 µg/mL), 49 nM, 1100 nM and 181 nM.
Taken in the same sequence, the figures for `Clc1ccc2c(Nc3cccc(C(c4nnn[nH]4)N4CCCCC4)c3)ccnc2c1` (stereo not given) were greater than 200 µM, 122 µM (≈ 51.2 µg/mL), 1260 nM, 286 nM and 487 nM.
Take `Clc1ccc2c(Nc3cccc(C(c4nnn[nH]4)N4CCOCC4)c3)ccnc2c1` (stereo not given): the IC50 with Plasmodium falciparum [1] came out at 1970 nM; with Plasmodium falciparum [2], 2070 nM; with Plasmodium falciparum [3] it was 1390 nM.
In turn, `CC[C@H]1CN2CCc3cc(OC)c(OC)cc3[C@@H]2C[C@@H]1C[C@H]1NCCc2cc(OC)c(OC)cc21` [EMETINE] showed a half-maximal inhibitory concentration (IC50) in the series on CHO of 129 nM.
